Experimental data published in patent US11793782B2, “Therapeutic agents for neurodegenerative diseases” (priority 2017, dated 2023).
Several values for one entry are separate records, joined by “and”; a condition that tells them apart may be missing. Equal values may be shown once.

Test system: NPC patients
Assay: Clinical severity score (CSS) and annual severity increment score (ASIS) in NPC patients
Assay type: in vivo, human
Design: key to CSS overall / CSS eye movement / CSS ambulation / CSS speech / CSS swallow / CSS fine motor skills / CSS cognition / CSS memory / CSS seizures: NPC clinical severity score; higher score = greater severity
Details: for CSS overall / CSS ambulation / CSS cognition / CSS eye movement / CSS fine motor skills / CSS memory / CSS seizures / CSS speech / CSS swallow / ASIS overall: NPC patients; for ASIS overall: CSS divided by age
Description: Progression of a neurodegenerative disease over time or through treatment can be monitored, for example, using one or more known tests at two or more time points and comparing the results. Disease progression and/or severity can be assessed, for example, using the Scale for the Assessment and Rating of Ataxia (SARA), Spinocerebellar Ataxia Functional Index (SCAFI), the International Cooperative Ataxia Rating Scale (ICARS), the brief ataxia rating scale (BARS), the modified Disability Rating Scale (mDRS), EuroQol 5Q-5D-5L (EQ-5D-5L), the visual analogue scale (VAS), neuropsychological tests, such as Wechsler Adult Intelligence Scale-Revised (WAIS-R), Wechsler Intelligence Scale for Children-IV (WISC-IV), Montreal Cognitive Assessment (MoCA), as well as scales used in movement disorders, such as the Unified Parkinson's Rating Scale (UPRS) or the Unified Multiple System Atrophy Rating Scale (UMSARS), or other suitable tests. For certain LSDs, such as NPC, particular scores have been developed and validated over the last decades, for instance the clinical severity score (CSS) and annual severity increment score (ASIS) (see Yanjanin et al., “Linear Clinical Progression, Independent of Age of Onset, in Niemann-Pick Disease, Type C,” Am J Med Genet Part B 153B:132-140) and the modified 6-Domain NP-C disability Scale (mDRS score). For example, an NPC patient's severity can be quantified by assigning a CSS, which assesses various parameters of the disease (ambulation, seizures, eye movement, etc.) and gives each parameter a score out of 5. A higher score equals a greater severity. The ASIS quantifies the annual rate of change in the CSS, calculated by dividing the CSS by the patient's age. In this regard, certain scores in these tests are characteristic of symptomatic neurodegenerative disease patients and evidence disease progression and/or severity.
An NPC patient's severity may be quantified by assigning a clinical severity score (CSS), which assesses various parameters of the disease and gives each parameter a score out of 5 (higher score=greater severity). See Yanjanin et al., “Linear Clinical Progression, Independent of Age of Onset, in Niemann-Pick Disease, Type C,” Am J Med Genet Part B 153B:132-140. In an untreated patient, one can typically predict how the CSS will change over time in an individual, as disease progression appears to be linear. For example, if Patient A moves from a CSS of 8 to a CSS of 12 between month 0 and month 12, it can be predicted that by month 36, the patient will have a CSS of 20. The annual severity increment score (ASIS) quantities the annual rate of change in the CSS, calculated by dividing the CSS of a patient by the patient's age. […] Each year, the patient would be expected to progress by 4 CSS points, such that at 4 years of age, the patient's CSS would be 16. If therapeutic intervention slowed or arrested disease progression, one would expect the patient to have a smaller ASIS score after such therapy than at baseline.
Ten NPC patients were administered acetyl-leucine at 4.5 g/day over long durations. ACSS was determined at baseline, and at various time points, for eye movement, ambulation, speech, swallow, fine motor skills, cognition, memory, and seizures. An overall CSS was calculated at baseline and at each such time point by adding the individual CSS values for each parameter (eye movement, ambulation, etc.).
The ASIS at baseline and each time point was calculated using each patient's CSS and age at the time of assessment. The overall ASIS for each patient at each time point is shown below in Table 35.

[1] = one line per Patient, 4.5 g/day, Time Point 2, listed as acetyl-leucine
[2] = one line per Patient, 4.5 g/day, Time Point 3, listed as acetyl-leucine
[3] = one line per Patient, 4.5 g/day, Time Point 4, listed as acetyl-leucine

CC(=O)NC(CC(C)C)C(=O)O (racemic) [acetyl-DL-leucine]
CSS overall (one line per Patient I.D 1-10, 4.5 g/day, Time Point 2 (78-400 days, Table 25), listed as acetyl-leucine): 13 and 12 (3×) and 23 and 19 and 22 and 11 (2×) and 33
CSS ambulation [1]: 2 (5×) and 1 (3×) and 4 and 5
CSS cognition [1]: 3 (5×) and 4 (3×) and 2 and 5
CSS eye movement [1]: 2 and 3 (9×)
CSS fine motor skills [1]: 1 (6×) and 4 (2×) and 2 and 5
CSS memory [1]: 1 (5×) and 3 and 4 (3×) and 0
CSS seizures [1]: 0 (9×) and 5
CSS speech [1]: 2 (4×) and 1 (6×)
CSS swallow [1]: 2 (5×) and 3 (3×) and 0 and 4
CSS overall (one line per Patient, 4.5 g/day, Time Point 3 (165-644 days), listed as acetyl-leucine): 10 (2×) and 12 and 21 (2×) and 19 and 11 (2×) and 33
CSS ambulation [2]: 1 (5×) and 2 (3×) and 5
CSS cognition [2]: 3 (5×) and 4 (3×) and 5
CSS eye movement [2]: 2 (2×) and 3 (7×)
CSS fine motor skills [2]: 1 (5×) and 4 (2×) and 2 and 5
CSS memory [2]: 0 (2×) and 1 (3×) and 3 (2×) and 4 (2×)
CSS seizures [2]: 0 (8×) and 5
CSS speech [2]: 1 (6×) and 2 (3×)
CSS swallow [2]: 2 (4×) and 3 (3×) and 0 and 4
CSS eye movement (one line per Patient, 4.5 g/day, Time Point 4): 3
CSS overall (one line per Patient, 4.5 g/day, Time Point 4 (297-414 days), listed as acetyl-leucine): 12 and 21 and 33
CSS ambulation [3]: 1 and 2 and 5
CSS cognition [3]: 3 and 4 and 5
CSS fine motor skills [3]: 1 and 4 and 5
CSS memory [3]: 1 and 3 and 4
CSS seizures [3]: 0 (2×) and 5
CSS speech [3]: 1 and 2 (2×)
CSS swallow [3]: 2 and 3 and 4
ASIS overall (one line per patient (order of Table 26), Time Point 2, listed as acetyl-leucine): 0.4767 and 0.4299 and 0.6073 and 0.5333 and 0.4452 and 0.7124 and 0.406 and 0.3769 and 1.905 and 0.5926
ASIS overall (one line per patient, Time Point 3, listed as acetyl-leucine): 0.3635 and 0.4232 and 0.5523 and 0.5299 and 0.4029 and 0.6656 and 0.3393 and 1.881 and 0.5325
ASIS overall (one line per patient, Time Point 4, listed as acetyl-leucine): 0.4162 and 0.5454 and 1.853
ASIS during treatment relative to ASIS at baseline (ten NPC patients, 4.5 g/day): all ten patients showed a reduction in ASIS
Overall change in CSS over the course of the experiment (ten NPC patients, 4.5 g/day): none of the ten patients showed an overall increase in CSS
